Measurements taken from US20010046963A1, “Novel use of flavones” (priority 2000, published 2001).

How the values were obtained:
COX-2 mRNA = assay: Semi-quantitative RT-PCR determination of COX-2 mRNA levels in HT-29 cells; type: cell-based; conditions: for COX-2/GAPDH [AUC]: HT-29 cells, 150 μM flavone, n = 4
Method: (§1) HT-29 cells (passage 106) were provided by ATCC and used between passage 150 and 200. Cells were cultured and passaged in RPMI-1640 supplemented with […] and 2 mM glutamine (all from GIBCO, Eggenstein, Germany). Antibiotics added were 100 U/ml penicillin and 100 μg/ml streptomycin (GIBCO). The cultures were maintained in a humidified atmosphere of 95% air and 5% CO2 at 37° C. Cells were passaged at preconfluent densities by the use of a solution containing 0.05% trypsin and 0.5 mM EDTA (GIBCO).
(§2) RNA from HT-29 cells was isolated at the times indicated in table 5 according to the method described by Chomczynski and Sacchi Anal. Biochem. 162 (1987) 156 with slight modifications. Reverse transcription was done with 5 μg of isolated RNA. First strand cDNA synthesis was accomplished with an oligo-(dT)15 primer (MBI Fermentas). Amplification of sequence specific fragments (Taq Polymerase was from Sigma) was performed with 30 cycles (95° C. denaturation for 1 min, 55° C. hybridization for 2 min, 72° C. extensions for 2 min; Personal Cycler, Biometra, Göttingen, Germany). RT-PCR products were separated on a 1% agrose gel and visualized by ethidium bromide. The amount of first strand used to amplify specific sequences was derived from the linear range of amplification. The amplified GAP-DH sequence was used as a constitutively expressed control. The amplivied products were photographed and the intensity of the bands was analyzed by the SigmaGel software. No products were obtained for all genes without reverse transcription […]. A λ-DNA/EcoRI+HindIII marker (MBI Fermentas) was used in all PCR experiments as a size control of the amplified products. Amplified cDNA sequences (primers were custom synthesized by Eurogentec, Seraing, Belgium) were GAP-DH: bp 558-1010; COX-2: bp 1366-1870, NFχB:bp 2832-3401.
(§3) That this effect on gene expression occurred selectively was shown by unaltered mRNA levels of the tumor suppressor p53.
(§4) Semi-quantitative determination of COX-2 and NFχB mRNA levels in HT-29 cells by use of RT-PCR (n=4).

NFχB mRNA = assay: Semi-quantitative RT-PCR determination of NFχB mRNA levels in HT-29 cells; type: cell-based; conditions: for NFχB/GAPDH [AUC]: 150 μM flavone, n = 4
Method: as §1, §2, §3, §4

## O=c1cc(-c2ccccc2)oc2ccccc12 [flavone, Flavone]
COX-2 mRNA; HT-29 cells exposed to flavone for 48 h
  COX-2 transcript levels (in words): diminished in its transcript levels drastically
COX-2 mRNA; incubation time 3 h
  COX-2/GAPDH [AUC]: 0.69 AUC
COX-2 mRNA; incubation time 8 h
  COX-2/GAPDH [AUC]: 0.35 AUC
NFχB mRNA; incubation time 3 h
  NFχB/GAPDH [AUC]: 1.1 AUC
NFχB mRNA; incubation time 8 h
  NFχB/GAPDH [AUC]: 1.7 AUC
NFχB mRNA; flavone treatment
  mRNA of NFχB (in words): reduced dramatically
